Test results as given in patent US5660613A, “Anaerobic/aerobic decontamination of DDT contaminated soil by repeated anaerobic/aerobic treatments” (Zeneca Corp., priority 1995, dated 1997).

Columns and labels:
[1] = Fate of radiolabelled DDT in the soil system, aerobic / anaerobic / anaerobic then aerobic incubation (Table 1); conditions: for % DDD (% remaining after tests) / % DDE (% remaining after tests) / % Other (% remaining after tests): from radiolabelled DDT; for % DDT (% remaining after tests): Triton X-100 500 ppm, 80640 min
Source text: This example compares the repeated anaerobic/aerobic sequence treatment method of the present invention with single anaerobic treatment and single aerobic treatment in the degradation of DDT in a soil system.
The soil in this example contains populations of >10^5 cfu/g viable aerobic and anaerobic microbes capable of rendering DDT-type contaminants harmless and being viable under both anaerobic and aerobic conditions. This soil contains DDT (200 ppm), DDD (22 ppm) and DDE (18 ppm).
Six 20 g samples of soil are each mixed with 25 ml of water containing 500 ppm each of cysteine and sulphite reducing agents and 500 ppm of "Triton"-X-100. To these slurries are added 1 ppm of radiolabelled 4,4'-DDT-ring UL C^14 in hexane. Two 20 g samples are incubated anaerobically (in 50-ml polypropylene tubes at 35° C., stationary);two 20 g samples are incubated aerobically (in rotating jars with foam plugs at 35° C., 150 rpm); and two 20 g samples are incubated on a 2 week anaerobic/2 week aerobic cycle for a total of 8 weeks.
Redox potential is monitored. After the aerobic phase redox is greater than +100 mV and after the anaerobic incubation redox potential is less than -200 mV.
The incubation samples are extracted, and the fate of the radiolabelled DDT is determined by thin layer chromatography and autoradiography/densitometry. The experiments are repeated to obtain average results.

[2] = Fate of radiolabelled DDT in the soil system with different surfactants, anaerobic/aerobic sequence (Table 2); conditions: anaerobic/aerobic cycles, 35° C.; for % DDD (% remaining after tests) / % DDE (% remaining after tests) / % Other (% remaining after tests): from radiolabelled DDT; for % DDT (% remaining after tests): 80640 min
Method: The soil to be remediated contains populations of >10^5 cfu/g of viable aerobic and anaerobic microbes capable of rendering DDT-type contaminants harmless and being viable under both anaerobic and aerobic conditions. This soil contains DDT (200 ppm), DDD (22 ppm) and DDE (18 ppm). Six twenty gram samples of soil are added to 50-ml polypropylene tubes with 25 ml of water containing 500 ppm each of cysteine and sulphite reducing agents. This creates a supersaturated anaerobic degradation zone immersed in water. To each slurry sample is added 500 ppm of different surfactants and 1 ppm of radiolabelled 4,4'-DDT ring UL C^14 in hexane.
The tubes are capped and incubated stationary for 2 weeks at 35° C. After 2 weeks the tubes are opened and the contents are each transferred to a foam-capped jar and aerated by rotary incubation (150 rpm), for a further 2 weeks at 35° C. The anaerobic/aerobic cycle is repeated 2 times.
The samples are then extracted and the fate of the radiolabelled DDT is determined by thin layer chromatography and autoradiography/densitometry. The experiments are replicated to obtain average results.

[3] = Pilot scale anaerobic/aerobic cycling of DDT-contaminated soil (immersion), solvent extraction and GC ECD analysis; conditions: after 16 weeks; one month immersed/drained cycles; 22° C. to 28° C.; initial DDT 728, DDD 87, DDE 50 ppm; 161280 min
Method: Three-quarters of a ton of soil that contains DDT (728 ppm), DDD (87 ppm) and DDE (50 ppm) is placed in an enclosed degradation zone box 8 foot by 8 foot by 18 inches. It is alternately immersed in water and drained on one month cycles. Sodium acetate nutrient (500 ppm) is added as required to maintain the COD above 300 mg/L, and a mixture of "Triton" X-100 and "DAWN" nonionic surfactants is added as required to maintain the surface tension in the leachate below 70 dynes/cm. The material is cultivated by hand weekly to aerate the degradation zone and render it aerobic during the drained phase. During the treatment, the temperature ranges from 22° C. to 28° C. The redox potential level in the treatment zone stays below negative 200 mV while immersed in water and above positive 100 mV while drained. While drained the water content of the soil is in the range of 40-100% WHC.
After 16 weeks 72% of the DDT, 31% of the DDD and 54% of the DDE is degraded, as measured by solvent extraction and GC ECD analysis.

[4] = Large scale anaerobic/aerobic repeated sequence, biopile technique; conditions: after 16 weeks of cycling, weekly air on/off, 22° C. to 28° C., initial DDT 728, DDD 87, DDE 50 ppm, 161280 min
Source text: Eight tons of soil containing DDT (728 ppm), DDD (87 ppm) and DDE (50 ppm) is placed in an enclosed degradation zone box 8 foot by 8 foot by 8 feet. The soil is amended with 5% straw nutrient. Water is continuously dripped onto the surface of the soil to supersaturate, and the leachate is collected at the bottom and recycled at a rate of 20 to 100 L/tonne/day. Oxygenation is accomplished by passing air through a mechanical distribution system in the soil at the rate of 44 L/tonne/day, weekly alternating the air on and off. The temperatures of the soil during treatment range from 22° C. to 28° C. The redox potential level in the treatment zone stays below negative 200 mV when aeration is off and above positive 100 mV when aeration is on.
Sodium acetate nutrient is added as required to boost the COD to above 300 mg/L, and maintain population counts above 10^5 cfu/g, of anaerobic and aerobic bacteria; and surfactants (a mixture of "Triton" X-100 and "DAWN") is added as required to maintain surface tension below 70 dynes/cm measured in the leachate, which is recycled.

[5] = Aerobic, 35° C., 150 rpm, 8 weeks
[6] = Anaerobic then Aerobic, 2 week/2 week cycle, total 8 weeks
[7] = Anaerobic, 35° C., stationary, 8 weeks

With `Clc1ccc(C(c2ccc(Cl)cc2)C(Cl)Cl)cc1` [DDD, 1,1,dichloro-2,2-bis(p-chlorophenyl)ethane] the “% DDD (% remaining after tests)” value [1, 5] was 17%, the “% DDD (% remaining after tests)” value [1, 6] was 60% and the “% DDD (% remaining after tests)” value [1, 7] was 30%. The “% DDD (% remaining after tests)” value ([2]; "Dawn" 500 ppm) was 75%, the “% DDD (% remaining after tests)” value ([2]; "Triton" X-100 500 ppm) was 40% and the “% DDD (% remaining after tests)” value ([2]; No Surfactant) was 15%. The “% degraded” value [3] was 31% and the “% degraded” value [4] was 55%.
In the case of `ClC(Cl)=C(c1ccc(Cl)cc1)c1ccc(Cl)cc1` [DDE, 2,2-bis(p-chlorophenyl)1,1-dichloroethylene], the “% DDE (% remaining after tests)” value [1, 5] is reported as 2%, the “% DDE (% remaining after tests)” value [1, 6] is reported as “trace” and the “% DDE (% remaining after tests)” value [1, 7] is reported as 0%. The “% DDE (% remaining after tests)” value ([2]; "Dawn" 500 ppm) was “trace”, the “% DDE (% remaining after tests)” value ([2]; "Triton" X-100 500 ppm) was “trace” and the “% DDE (% remaining after tests)” value ([2]; No Surfactant) was 0%. The “% degraded” value [3] was 54% and the “% degraded” value [4] was 54%.
For `Clc1ccc(C(c2ccc(Cl)cc2)C(Cl)(Cl)Cl)cc1` [DDT, 1,1,1-trichloro-2,2-bis(p-chlorophenyl)ethane], the “% DDT (% remaining after tests)” value [1, 5] was 80%, the “% Other (% remaining after tests)” value [1, 5] was 1% and the “% DDT (% remaining after tests)” value [1, 6] was 10%. For the same compound, the “% Other (% remaining after tests)” value [1, 6] was 30%, the “% DDT (% remaining after tests)” value [1, 7] was 60% and the “% Other (% remaining after tests)” value [1, 7] was 10%. For the same compound, the “% DDT (% remaining after tests)” value ([2]; "Dawn" 500 ppm) was 10%, the “% Other (% remaining after tests)” value ([2]; "Dawn" 500 ppm) was 15% and the “% DDT (% remaining after tests)” value ([2]; "Triton" X-100 500 ppm) was 0%. For the same compound, the “% Other (% remaining after tests)” value ([2]; "Triton" X-100 500 ppm) was 60%, the “% DDT (% remaining after tests)” value ([2]; No Surfactant) was 85% and the “% Other (% remaining after tests)” value ([2]; No Surfactant) was 0%. The “% degraded” value [3] was 72% and the “% degraded” value [4] was 53%.
